Laboratory results: US20240101599A1, “PEPTIDE, CELL GROWTH PROMOTER, PROTEIN PRODUCTION PROMOTER, CULTURE MEDIUM, CELL GROWTH METHOD USING PEPTIDE, AND PROTEIN PRODUCTION METHOD USING PEPTIDE” (Maruhachi Muramatsu, Inc., priority 2020, published 2024)
Peptide text beside a SMILES is read from it.

Tests used:
[1] = system: CHO-K1; test: Relationship between number of days of cell growth of each peptide and cell number (absorbance); assay type: cell-based; conditions: 1.1 mM GPP, 2.2 mM DGP, 2.1 mM GEK, 2.0 mM AGK, MEMα without FBS
Description: Peptides having the sequences of Gly-Pro-Pro (GPP), Asp-Gly-Pro (DGP), Gly-Glu-Lys (GEK), and Ala-Gly-Lys (AGK) were synthesized to prepare each peptide solution such that the concentration was a concentration at which the cell number increased the most within a range of 0 mM to 5 mM. In other words, Gly-Pro-Pro (GPP) was adjusted to 11 mM, Asp-Gly-Pro (DGP) was adjusted to 22 mM, Gly-Glu-Lys (GEK) was adjusted to 21 mM, and Ala-Gly-Lys (AGK) was adjusted to 20 mM, and an amount of 1/10 of the total culture medium volume was added to each well immediately before the cell culture test such that final concentrations were 1.1 mM, 2.2 mM, 2.1 mM, and 2.0 mM, respectively.
A cell suspension prepared such that CHO-K1 (RIKEN BioResource Research Center, cell number: RCB2330) was at 3×10^4 cells/mL was seeded in a 96-well plate at 100 μL/well and cultured in an incubator at 37° C. and 5% CO2 for 24 hours. As a culture medium, an MEMα culture medium (Gibco) containing 10% FBS was used.
After removing the culture medium from each well and washing with the MEMα culture medium (100 μL), 90 μL of a new MEMα culture medium was dispensed into each well, and each peptide solution (10 μL) was added (total 100 μL/well) to perform culture for 0 to 5 days. Every day, 10 μL/well of a viable cell count measurement reagent SF (Nacalai Tesque Inc.) was added, and a color reaction was carried out in an incubator at 37° C. and 5% CO2 for 2 hours to measure an absorbance at 450 nm with a plate reader. A reference wavelength was 630 nm. It was confirmed that the absorbance at 450 nm correlated with the cell number. A similar culture test was performed using a system containing neither peptide nor FBS as a comparative sample.
The above preparation, culture, and measurement were performed with n=3, and Table 12 and FIG. 12 show the absorbance and the standard deviation of each peptide solution for each day.

[2] = system: CHO DP-12; test: Cell growth test and protein production test on each peptide and combination of peptides on coating agent; assay type: cell-based; conditions: one type of tripeptide: GPP 1.1 mM, DGP 2.2 mM, GEK 2.1 mM, AGK 2.0 mM, 5 days; for Amount of protein produced, Average / Viability, Average: average n=3; for Amount of protein produced, Average / Amount of protein produced, 1 / Amount of protein produced, 2 / Amount of protein produced, 3: ELISA; for Cells cell count, Average: poly-L-lysine coating, n=3; for Amount of protein produced, 1 / Viability, 1: replicate 1; for Amount of protein produced, 2 / Viability, 2: replicate 2; for Amount of protein produced, 3 / Viability, 3: replicate 3
Description: Peptides having the sequences of Gly-Pro-Pro (GPP), Asp-Gly-Pro (DGP), Gly-Glu-Lys (GEK), and Ala-Gly-Lys (AGK) were synthesized to prepare each peptide solution such that the concentration was a concentration at which the cell number increased the most within a range of 0 mM to 5 mM. In other words, Gly-Pro-Pro (GPP) was adjusted to 11 mM, Asp-Gly-Pro (DGP) was adjusted to 22 mM, Gly-Glu-Lys (GEK) was adjusted to 21 mM, and Ala-Gly-Lys (AGK) was adjusted to 20 mM, and an amount of 1/10 of the total culture medium volume was added to each well immediately before the cell culture test such that final concentrations were 1.1 mM, 2.2 mM, 2.1 mM, and 2.0 mM, respectively. Poly-L-lysine (Peptide Institute, Inc., Poly-L-Lysine Hydrochloride, code: 3075) was prepared to 0.1 mg/mL, and 200 μL was dispensed into each well of a 24-well plate, which was left to stand in an incubator at 37° C. for 2 hours. After removing the residual liquid with an aspirator, rinsing was performed with distilled water, irradiation was performed with a UV lamp in a clean bench without a lid, and drying was performed overnight to sterilize. A cell suspension prepared such that CHO DP-12 (ATCC, Cat. No. CRL-12445) was at 2×10^4 cells/well and 500 μL was seeded in a 24-well plate and cultured in an incubator at 37° C. and 5% CO2 for 24 hours. As a culture medium, a DMEM basal medium in which 200 nM of methotrexate and 2 μg/mL of insulin were blended in a DMEM culture medium (Gibco) containing 10% FBS was used.
After removing the culture medium from each well and washing with the DMEM basal medium (500 μL), 450 μL of a new DMEM basal medium was dispensed into each well, and each peptide solution (50 μL) was added (total 500 μL/well) to perform culture for 5 days.
As peptides, in addition to single GPP, DGP, GEK, and AGK, combinations of GPP+GEK, GPP+AGK, DGP+GEK, GEK+AGK, DGP+AGK, GPP+GEK+AGK, GPP+DGP+AGK, and GPP+DGP+GEK were used. A similar culture test was performed using a system containing neither peptide nor FBS as a comparative sample.
In order to measure the amount of protein produced, 100 μL of the culture medium supernatant was recovered in a 1.5 mL tube and diluted to quantitatively determine the amount of protein produced by an ELISA method.
In order to recover the cells, the culture medium in each well was recovered in a 1.5 mL tube to be rinsed with 200 μL of the DMEM basal medium, and the rinsed liquid was also recovered in the same 1.5 mL tube. Thereafter, 100 μL of trypsin was added and incubated for 3 minutes. After rinsing with 300 μL of the DMEM basal medium containing 10% FBS, the rinsed liquid was also recovered in the same 1.5 mL tube. After rinsing again with 200 μL of the DMEM basal medium containing 10% FBS, the rinsed liquid was also recovered in the same 1.5 mL tube.
A centrifugation operation was performed on the cells recovered in the 1.5 mL tube. The centrifugation conditions were 1,000 rpm, 10 minutes, and 4° C.
The supernatant was removed, and 300 μL of Cold PBS (phosphate buffered saline) was added to perform a centrifugation operation under the same conditions. The present operation was repeated twice.
Suspension was carried out with 100 μL of Binding Buffer, and 2 μL of propidium iodide (PI) was added and stirred in the tube to cause a reaction for 15 minutes at room temperature and with light shielding. Thereafter, the viable cell count and the cell viability were measured with a flow cytometer.
The above preparation, culture, and measurement were performed with n=3. Table 17, FIG. 17, Table 20, FIG. 20, Table 23, and FIG. 23 show the viable cell count in each peptide solution. Table 18, FIG. 18, Table 21, FIG. 21, Table 24, and FIG. 24 show the cell viability in each peptide solution. Table 19, FIG. 19, Table 22, FIG. 22, Table 25, and FIG. 25 show the amount of protein produced in each peptide solution.

Row | Compound | OD450 (average value n = 3) ([1]; Day 0) | OD450 (average value n = 3) ([1]; Day 1) | OD450 (average value n = 3) ([1]; Day 2) | OD450 (average value n = 3) ([1]; Day 3) | OD450 (average value n = 3) ([1]; Day 4) | OD450 (average value n = 3) ([1]; Day 5) | Amount of protein produced, Average [2] | Viability, Average [2] | Cells cell count, Average [2] | Amount of protein produced, 1 [2] | Viability, 1 [2] | Amount of protein produced, 2 [2] | Viability, 2 [2] | Amount of protein produced, 3 [2] | Viability, 3 [2]
1 | NCCCC[C@H](NC(=O)[C@H](CCC(=O)O)NC(=O)CN)C(=O)O [GEK, Gly-Glu-Lys] (H-Gly-Glu-Lys-OH; N-terminus and C-terminus assumed) | 0.1613 | 0.4280 | 0.6043 | 0.7300 | 0.9023 | 0.9107 | 5.59 mg/L | 86.9 | 15.9345 ×10^4 | 6.13 mg/L | 86.5 | 4.59 mg/L | 87.4 | 6.06 mg/L | 86.7
2 | C[C@H](N)C(=O)NCC(=O)N[C@@H](CCCCN)C(=O)O [AGK, Ala-Gly-Lys] (H-Ala-Gly-Lys-OH; N-terminus and C-terminus assumed) | 0.1757 | 0.4577 | 0.7440 | 0.7997 | 1.0263 | 1.0620 | 6.92 mg/L | 88.5 | 19.0887 ×10^4 | 7.36 mg/L | 89.0 | 6.61 mg/L | 88.5 | 6.78 mg/L | 88.1
3 | Gly-Pro-Pro [GPP] | 0.2023 | 0.5267 | 0.7083 | 0.8350 | 1.0227 | 0.9003 | 5.86 mg/L | 88.2 | 15.5502 ×10^4 | 5.78 mg/L | 88.9 | 5.31 mg/L | 87.9 | 6.50 mg/L | 87.9
4 | Asp-Gly-Pro [DGP] | 0.1607 | 0.4507 | 0.6840 | 0.7700 | 0.9313 | 0.9363 | 5.24 mg/L | 86.9 | 14.6333 ×10^4 | 5.37 mg/L | 86.3 | 4.90 mg/L | 87.3 | 5.44 mg/L | 87.2
